Experimental data: US20250339514A1, “SINGLE-AND MULTI-EPITOPE PEPTIDE AND MRNA VACCINES TO GENERATE TOLEROGENIC EFFECTS FOR ALLERGIC AND AUTOIMMUNE DISEASE BY TARGETING LIVER SINUSOIDAL ENDOTHELIAL CELLS” (The Regents of the University of California, priority 2022, published 2025)
Where two headings read alike, the source gives them in different places.

Legend:
[1] = Cargo loading and ApoBP ligand content by microBCA / BCA assay; type: physicochemical
Procedure: The relative abundance of mannan incorporation was assessed by calculating the difference between the total amount offered for conjugation versus the amount recovered in the supernatant. […] The abundance of peptide conjugation was assessed by a microBCA assay and a nanodrop method.
The purified NPs were fully characterized using dynamic light scattering to determine particle size and surface charge, and scanning electron microscopy was performed to visualize particle morphology. The microBCA assay was used to detect OVA loading capacity and the conjugation efficiency of the peptide ligand, whereas the phenol-sulfuric acid method was used to determine mannan concentration. The endotoxin level was verified by a chromogenic LAL assay.
Particles were separated and washed by centrifugation (15,000 g, 10 min). Hydrodynamic size and surface potential were measured using dynamic light scattering (DLS), with visualization of the particle size and morphology by scanning electron microscopy (SEM). […] In addition to loading of T-cell epitopes, we also selected an IgE binding peptide for encapsulation, in addition to the synthesis of nanoparticles that incorporate CPPE as well as a purified Ara h2 protein (Indoor Biotechnologies). The CPPE was prepared as described in the Online Repository section. Allergen loading capacity, including for CPPE, purified Ara h2 and its epitopes, as well as the conjugation efficacy of the ApoB ligand was determined by bicinchoninic acid assay (BCA assay).

[2] = ionizable lipid; cited from earlier work
factor VII = conditions: cited from earlier work
human T-cell lines = conditions: T-cell lines isolated from 10 different donors; cited from earlier work
T cell responses = system: T cell responses; parameters: Immunopositivity of predicted CTL epitope / Immunopositivity of MHC II peptide: scale not given here; conditions: cited from earlier work; for Immunopositivity of predicted CTL epitope: class I MHC peptides, Table 59; for Immunopositivity of MHC II peptide: MHC II peptides, Table 60
I-Ek = conditions: cited from earlier work; for SYFPEITHI score: I-Ek; for Score (antigenic score predicted): MHC II H2-E^k
[3] = system: class I MHC K, D, and L loci; conditions: cited from earlier work; for predicted binding to the H2-Ld locus: SYFPEITHI and BIMAS
H2-A^k = H2-A^k (Mus musculus, UniProt P01910+P06343); conditions: MHC II H2-A^k; cited from earlier work
[4] = peptide in PLGA nanoparticles, Table 66
[5] = H2 locus K, haplotype d (9-mer)
[6] = H2 locus K, haplotype k (9-mer)
[7] = H2 locus D, haplotype b (9-mer)

Chain of H2-A^k (P01910 24-256): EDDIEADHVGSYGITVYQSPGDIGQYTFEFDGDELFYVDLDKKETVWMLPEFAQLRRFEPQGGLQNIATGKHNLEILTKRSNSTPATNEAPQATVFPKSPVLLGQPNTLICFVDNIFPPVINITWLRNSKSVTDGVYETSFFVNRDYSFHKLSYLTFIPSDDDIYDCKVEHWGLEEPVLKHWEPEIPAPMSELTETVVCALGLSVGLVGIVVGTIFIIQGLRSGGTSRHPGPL
Chain of H2-A^k (P06343 28-263): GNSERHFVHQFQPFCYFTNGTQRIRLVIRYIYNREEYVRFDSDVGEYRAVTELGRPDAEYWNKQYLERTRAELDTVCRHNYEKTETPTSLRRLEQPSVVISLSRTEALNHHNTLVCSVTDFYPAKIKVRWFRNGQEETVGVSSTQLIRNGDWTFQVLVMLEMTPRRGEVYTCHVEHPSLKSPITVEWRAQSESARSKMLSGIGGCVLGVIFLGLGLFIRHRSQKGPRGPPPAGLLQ

Compound: 1 (LALFLLAAHASARQQ; listed as Arachis hypogaea) [compound 1]
- Loading Capacity ([1]; epitope in PLGA NPs, Table 68): 1.62 + 2.11 μg/mg

Compound: 1,2-dioleoyl-3-dimethylaminopropane [DODAP]
- pKa [2]: 6.6

Compound: 2 (LRNLPQQCGLRAPQR; listed as Arachis hypogaea) [compound 2]
- Loading Capacity ([1]; epitope in PLGA NPs, Table 68): 3.22 ± 1.96 µg/mg

Compound: 3 (MAKLTILVALALFLL; listed as Arachis hypogaea) [compound 3]
- Loading Capacity ([1]; epitope in PLGA NPs, Table 68): 1.31 + 1.72 μg/mg

Compound: 4 (SYGRDPYSPSQDPYS; listed as Arachis hypogaea) [compound 4]
- Loading Capacity ([1]; epitope in PLGA NPs, Table 68): 8.68 ± 2.04 µg/mg

Compound: CCCCC/C=C\C/C=C\CCCCCCCCC1(CCCCCCCC/C=C\C/C=C\CCCCC)OCC(CN(C)C)O1 (stereo not drawn) [DLin-K-DMA, 2,2-dilinoleyl-4-dimethylaminomethyl-[1,3]-dioxolane]
- potency on the in vivo silencing of factor VII (factor VII; higher than the other tested lipids): 2.5 fold

Compound: CCCCC/C=C\C/C=C\CCCCCCCCC1(CCCCCCCC/C=C\C/C=C\CCCCC)OCC(CCN(C)C)O1 (stereo not drawn) [DLin-KC2-DMA, 2,2-dilinoleyl-4-(2-dimethylaminoethyl)-[1,3]-dioxolane]
- activity (factor VII; higher activity over DLin-K-DMA): 4 fold

Compound: CCCCC/C=C\C/C=C\CCCCCCCCC(CCCCCCCC/C=C\C/C=C\CCCCC)OC(=O)CCCN(C)C [DLin-MC3-DMA, (6Z,9Z,28Z,31Z)-heptatriaconta-6,9,28,31-tetraen-19-yl-4-(dimethylamino) butanoate]
- pKa [2]: 6.44
- potency (factor VII; higher potency than DLin-KC2-DMA): 10 fold

Compound: CCCCC/C=C\C/C=C\CCCCCCCCC(O)(CCCCCCCC/C=C\C/C=C\CCCCC)CCCCN(C)C [YSK012-C4]
- pKa [2]: 8.0

Compound: #1 (LALFLLAAHASARQQ; listed as Arachis hypogaea)
- Loading Capacity [1, 4]: 1.62 + 2.11

Compound: #2 (LRNLPQQCGLRAPQR; listed as Arachis hypogaea)
- Loading Capacity [1, 4]: 3.22 + 1.96

Compound: #3 (MAKLTILVALALFLL; listed as Arachis hypogaea)
- Loading Capacity [1, 4]: 1.31 + 1.72

Compound: #4 (SYGRDPYSPSQDPYS; listed as Arachis hypogaea)
- Loading Capacity [1, 4]: 8.68 + 2.04

Compound: AH91-110: adalimumab HCDR3 peptide
- recognition by T-cell lines (human T-cell lines): recognized by the majority of T-cell lines

Compound: LEPLGLVEEGAKTAP [AAV8-VP3 aa 126-140, reference compound]
- Th1 response (T cell responses; C3H mice): strong H2k MHC II-restricted Th1 response
- SYFPEITHI score (I-Ek): 28

Compound: NSYVTPICIADKEYT [hF.IX aa 328-342, reference compound]
- SYFPEITHI score (I-Ek): 24

Compound: QPARKRLNF [AAV8 capsid aa 166-174, reference compound]
- predicted binding to the H2-Ld locus [3]: high-scoring

Compound: QVSVEIEWELQKENS [AAV2-VP3 475-489, reference compound]
- Th2 response (T cell responses; C3H mice): strong Th2 response
- SYFPEITHI score (I-Ek): 22

Compound: SEQ ID NO: 1115 (QYGSVSTNL; listed as Arachis hypogaea)
- Immunopositivity of predicted CTL epitope (T cell responses): QYGSVSTNL^c
- BIM score predicted using the BIMAS program [3, 5]: 4147
- SYF score predicted using the SYFPEITHI program [3, 5]: 27

Compound: SEQ ID NO: 1121 (LDRLMNPLI; listed as Arachis hypogaea)
- Immunopositivity of predicted CTL epitope (T cell responses): LDRLMNPLI^e
- SYF score predicted using the SYFPEITHI program [3, 6]: 20

Compound: SEQ ID NO: 1122 (EEIRTTNPV; listed as Arachis hypogaea)
- Immunopositivity of predicted CTL epitope (T cell responses): EEIRTTNPY^e
- BIM score predicted using the BIMAS program [3, 6]: 100
- SYF score predicted using the SYFPEITHI program [3, 6]: 20

Compound: SEQ ID NO: 1124 (TADVNTQGV; listed as Arachis hypogaea)
- Immunopositivity of predicted CTL epitope (T cell responses): TADVNTQGV^e
- BIM score predicted using the BIMAS program [3, 7]: 3.4
- SYF score predicted using the SYFPEITHI program [3, 7]: 23

Compound: SEQ ID NO: 1133 (KYLGPFNGL; listed as Arachis hypogaea)
- Immunopositivity of predicted CTL epitope (T cell responses): KYLGPFNGL^c
- BIM score predicted using the BIMAS program [3, 5]: 6912
- SYF score predicted using the SYFPEITHI program [3, 5]: 27

Compound: SEQ ID NO: 1134 (EYGIVADNLD; listed as Arachis hypogaea)
- Immunopositivity of predicted CTL epitope (T cell responses): EYGIVADNL^d
- BIM score predicted using the BIMAS program [3, 5]: 2400
- SYF score predicted using the SYFPEITHI program [3, 5]: 23

Compound: SEQ ID NO: 1140 (LDRLMNPLI; listed as Arachis hypogaea)
- Immunopositivity of predicted CTL epitope (T cell responses): LDRLMNPLI^e
- BIM score predicted using the BIMAS program [3, 6]: 100
- SYF score predicted using the SYFPEITHI program [3, 6]: 20

Compound: SEQ ID NO: 1141 (EEIKTTNPV; listed as Arachis hypogaea)
- Immunopositivity of predicted CTL epitope (T cell responses): EEIKTTNPV^e
- BIM score predicted using the BIMAS program [3, 6]: 100
- SYF score predicted using the SYFPEITHI program [3, 6]: 20

Compound: SEQ ID NO: 1151 (KYNHDIALL; listed as Arachis hypogaea)
- Immunopositivity of predicted CTL epitope (T cell responses): KYNHDIALL^c
- BIM score predicted using the BIMAS program [3, 5]: 3456
- SYF score predicted using the SYFPEITHI program [3, 5]: 24

Compound: SEQ ID NO: 1152 (GYVSGWGRVD; listed as Arachis hypogaea)
- Immunopositivity of predicted CTL epitope (T cell responses): GYVSGWGRV^d
- BIM score predicted using the BIMAS program [3, 5]: 1440
- SYF score predicted using the SYFPEITHI program [3, 5]: 22

Compound: SEQ ID NO: 1160 (GSIVNEKWID; listed as Arachis hypogaea)
- Immunopositivity of predicted CTL epitope (T cell responses): GSIVNEKWI^d
- BIM score predicted using the BIMAS program [3, 7]: 936
- SYF score predicted using the SYFPEITHI program [3, 7]: 26

Compound: SEQ ID NO: 1161 (LDHENANKI; listed as Arachis hypogaea)
- Immunopositivity of predicted CTL epitope (T cell responses): LDHENANKI^e
- BIM score predicted using the BIMAS program [3, 7]: 240
- SYF score predicted using the SYFPEITHI program [3, 7]: 23

Compound: SEQ ID NO: 1170 (QVSVEIEWELQKENS; listed as Arachis hypogaea)
- Immunopositivity of MHC II peptide (T cell responses): QVSVEIEWELQKENS^b
- Score (antigenic score predicted) (I-Ek): 22

Compound: SEQ ID NO: 1171 (GVLIFGKQSEKTNV; listed as Arachis hypogaea)
- Score (antigenic score predicted) (I-Ek): 22

Compound: SEQ ID NO: 1172 (TSADNNNSEYSWTGA; listed as Arachis hypogaea)
- Score (antigenic score predicted) (H2-A^k): 24

Compound: SEQ ID NO: 1173 (NGRDSLVNPGPAMAS; listed as Arachis hypogaea)
- Score (antigenic score predicted) (H2-A^k): 24

Compound: SEQ ID NO: 1174 (LEPLGLVEEGAKTAP; listed as Arachis hypogaea)
- Immunopositivity of MHC II peptide (T cell responses): LEPLGLVEEGAKTAP^b
- Score (antigenic score predicted) (I-Ek): 28

Compound: SEQ ID NO: 1175 (YKYLLGPFNGLDKGEP; listed as Arachis hypogaea)
- Immunopositivity of MHC II peptide (T cell responses): YKYLLGPINGUDKGEP^d
- Score (antigenic score predicted) (I-Ek): 28

Compound: SEQ ID NO: 1176 (IVADNLQQQNTAPQI; listed as Arachis hypogaea)
- Score (antigenic score predicted) (H2-A^k): 26

Compound: SEQ ID NO: 1178 (NSYVTPICIADEKEYT; listed as Arachis hypogaea)
- Immunopositivity of MHC II peptide (T cell responses): NSYVTPICIADKEYT^c
- Score (antigenic score predicted) (I-Ek): 24

Compound: SEQ ID NO: 1179 (YTKVSRYVNWIEKEKT; listed as Arachis hypogaea)
- Score (antigenic score predicted) (I-Ek): 22

Compound: SEQ ID NO: 1180 (NKWCSCTEGYRLAE; listed as Arachis hypogaea)
- Score (antigenic score predicted) (I-Ek): 22

Compound: SEQ ID NO: 1181 (YNHDIALLELLEDEPLV; listed as Arachis hypogaea)
- Score (antigenic score predicted) (H2-A^k): 24

Compound: SEQ ID NO: 1182 (CKDDINSYECWCPFG; listed as Arachis hypogaea)
- Score (antigenic score predicted) (H2-A^k): 18

Compound: SEQ ID NO: 1183 (QYVDGDQCESNPCLN; listed as Arachis hypogaea)
- Score (antigenic score predicted) (H2-A^k): 18

Compound: VPQYGYLTL [AAV2 capsid aa 170-178, reference compound]
- predicted binding to the H2-Ld locus [3]: high-scoring

Compound: YTKVSRYVNWIKEKT [hF.IX aa 444-460, reference compound]
- SYFPEITHI score (I-Ek): 22
